Data set [1] is classed as in vivo, female BLT mice. The conditions noted are these: for genital tract tissue concentrations relative to what has been observed in women: single dose TFV 150 mg/kg, higher than in women (54). The procedure: For RPV LA, 14 mice were injected intramuscularly in the flank with 3 mg RPV LA, for a dose of approximately 150 mg/kg. Two mice were euthanized at 1, 3, 6, 12, 24, 48, and 168 h postinjection. For TFV/FTC, an additional 12 mice were injected intraperitoneally with 150 mg/kg TFV and 100 mg/kg FTC. Two mice were euthanized at 1, 3, 6, 12, 24, and 48 h postinjection. Blood was drawn at each time point until euthanasia, and plasma was separated. At necropsy, female genital tract and colon/rectum were collected, weighed, and immediately flash-frozen dry.
RPV, TFV, and FTC were extracted from mouse plasma with isotopically labeled internal standards (RPV-d6; TFV-^13C5; and FTC-^13C, ^15N2, respectively) using protein precipitation. TFV and FTC were separated on a Waters Atlantis T3 (2.1 by 50 mm, 3 μm) high-performance liquid chromatography (HPLC) column and RPV on an Xterra MS C18 (2.1 by 50 mm, 3.5 μm) HPLC column. The calibrated ranges were 1 to 4,000 ng/ml (TFV and FTC) or 1 to 10,000 ng/ml (RPV). Calibration standards and quality control (QC) samples were prepared in blank plasma with an acceptance criteria of ±20%.
Frozen tissue biopsy specimens were homogenized in 1 ml of cold 70:30 acetonitrile–1 mM ammonium phosphate (pH 7.4). RPV, TFV, FTC, TFVdp, and FTCtp were extracted from tissue homogenate with the following isotopically labeled internal standards: RPV-d6; TFV-^13C5; FTC-^13C, ^15N2; and TFVdp-^13C5 (for both TFVdp and FTCtp). For quantification, analytes and internal standards were separated on a Waters Atlantis T-3 C18 HPLC column (TFV and FTC), a ThermoBioBasic AX HPLC column (TFVdp and FTCtp), or an Xterra MS C18 (2.1 by 50 mm, 3.5 μm) HPLC column (RPV). The calibrated ranges were 0.300 to 300 ng/ml (TFV, FTC, TFVdp, and FTCtp) and 1 to 200 ng/ml (RPV). Resulting concentrations were normalized to tissue weight assuming a tissue density of 1 g/ml ([86]) and reported as nanograms or femtomole per gram. Calibration standards and QC samples were prepared in blank tissue homogenate with an acceptance criteria of ±20%.

Data set [2] concerns simian immunodeficiency virus (SIV). The conditions noted are these: cited from earlier work.
The subject of data set [3] is E138K. Put plainly: RPV resistance of RT mutant (data not shown). The format is cell-based, HIV-1.
In data set [4] the test system is Y181C. Details: method as in PMID 19933797. As to conditions: cited from earlier work.
For data set [5], the system named is HIV-1. The conditions noted are these: cited from earlier work.
Data set [6] concerns WT HIV-1CH185. Nature of the data set: Drug susceptibility assay in TZM-bl cells. The format is cell-based. The conditions noted are these: Human immunodeficiency virus 1, Fig. 9B. Here is the method:
(§1) WT, Y181C, and Y181V HIV-1 stocks were phenotyped for resistance to RPV or RPV LA as previously described ([68]). Briefly, TZM-bl cells ([84]) were seeded at 5 × 10^3 cells in 96-well cell culture-treated, white-walled plates (PerkinElmer) in phenol red-free Dulbecco’s modified Eagle’s medium (DMEM; Life Technologies) supplemented with 10% fetal bovine serum (FBS; Atlanta Biologicals) and 100 U/ml penicillin, 100 μg/ml streptomycin, and 0.292 mg/ml L-glutamine (PSG; Life Technologies). The following day, virus was added at a multiplicity of infection (MOI) of 0.05 in the presence or absence of RPV dilutions in triplicate. Plates were incubated at 37°C for 48 h, and luciferase was measured using Britelite Plus reagent (PerkinElmer) on a Luminoskan Ascent microplate luminometer (Thermo Scientiﬁc). Relative light units (RLU) were converted to percent infection by dividing the RLU of each drug dilution by the RLU of the 100% infection control in the absence of drug. Wells containing cells with no virus and no drug were used to normalize for background luciferase output. The EC50 was calculated by log transforming drug concentrations and using a four-parameter variable-slope nonlinear regression for curve-ﬁtting analysis using PRISM 6 (GraphPad).

Data set [7] concerns WT HIV-1NL4-BAL. Put plainly: Drug susceptibility assay in TZM-bl cells. The format is cell-based. As to conditions: Human immunodeficiency virus 1, BAL. Here is the method: as §1
In data set [8] the test system is Y181V HIV-1CH185. Put plainly: Drug susceptibility assay in TZM-bl cells. The format is cell-based. As to conditions: Fig. 9B. The procedure:
as §1

In data set [9] the test system is Y181C HIV-1NL4-BAL. Nature of the data set: Drug susceptibility assay in TZM-bl cells. The format is cell-based. As to conditions: Fig. 1A. The procedure: as §1
Data set [10] deals with Y181V HIV-1NL4-BAL. Nature of the data set: Drug susceptibility assay in TZM-bl cells. The format is cell-based. The procedure:
as §1

The conditions of data set [11]: even at a high dose; cited from earlier work.
For data set [12] the following is noted: cited from earlier work.
The test system of data set [13] is Y181I HIV-1NL4-BAL. Put plainly: Drug susceptibility assay in TZM-bl cells. The format is cell-based. As to conditions: Fig. 1A.
Data set [14] has as its system Y181V. Details: method as in earlier work. As to conditions: cited from earlier work.
The test system of data set [15] is Y181I/V. Details: method as in PMID 19933797. As to conditions: cited from earlier work.

Molecules are shown by their SMILES. Values joined by “and” are separate entries in the source; they are usually repeats but may differ in a detail not shown here. Identical values can stand only once. Like-named read-outs stand apart in the source and are kept apart here.

Turning to `CC(Cn1cnc2c(N)ncnc21)OCP(=O)(O)OP(=O)(O)OP(=O)(O)O` (stereo in doubt) [TFVdp, TFV diphosphate], in [1], the “genital tract tissue concentrations relative to what has been observed in women” value was “approximately 10 fold”.
Regarding `Nc1nc(=O)n([C@@H]2CS[C@H](COP(=O)(O)OP(=O)(O)OP(=O)(O)O)O2)cc1F` [FTCtp, FTC triphosphate], the “tissue FTC triphosphate (FTCtp) concentrations” value in data set [1] (female genital tract, 12 h, 24 h, and 48 h postdose, single dose PK study) was “undetectable”.
For the molecule `Cc1cc(/C=C/C#N)cc(C)c1Nc1ccnc(Nc2ccc(C#N)cc2)n1` [RPV, rilpivirine], the “inhibition of simian immunodeficiency virus (SIV)” value in data set [2] is “does not inhibit”. Also, the “resistance conferred by E138K” value in data set [3] is listed as 2 fold. For the same molecule, the “resistance conferred by Y181C” value in [4] was 3 fold. Further, in data set [5], the “protein-adjusted 90% effective concentration (EC90)” value was 0.012 µg/mL and 0.0121 µg/mL. For the same molecule, in [5] (read-out: protein-adjusted EC90), the EC90 is 33 nM. Moreover, the EC50 in [6] was 0.21 ± 0.003 nM; in [7] (Fig. 1A, read-out: 50% effective concentration (EC50)) it was 0.54 nM and 0.0002 µg/mL; in [7] (Fig. 9B, read-out: average EC50), 0.34 ± 0.07 nM; in data set [7] (RPV LA compared with soluble RPV, Fig. 2, read-out: EC50) it was 0.6 nM and 0.00022 µg/mL; in data set [8] (Human immunodeficiency virus 1, TZM-bl cells), 12 ± 1.5 nM; in data set [10] (Human immunodeficiency virus 1, BAL, TZM-bl cells, Fig. 9B), 7.3 ± 1.3 nM. Also, the “fold change from the level for WT HIV-1NL4-BAL” value in [8] (Y181V HIV-1CH185) came to 36 fold; in data set [10] (Y181V HIV-1NL4-BAL, Fig. 9B), 21 fold. Besides, the “fold increase in EC50 (RPV resistance) vs WT HIV-1NL4-BAL” value was determined as 3 fold in data set [9]; 27 fold in [10] (Y181V, TZM-bl cells, Fig. 1A); 23 fold in data set [13]. Moreover, the “reduced susceptibility to RPV of virus encoding Y181V” value in data set [10] (discussion) is given as more than 20 fold. The “RPV resistance of Y181V HIV-1” value in data set [10] (in the viruses used for this study (abstract)) is reported as 30 fold. For the same molecule, in data set [11], the metabolism in macaques result is “rapidly metabolized”. The protein binding entry in [12] is “highly protein bound”. Moreover, the “resistance conferred by Y181V” value in [14] is “approximately 20 fold”.
On to `C[C@H](Cn1cnc2c(N)ncnc21)OCP(=O)(O)O` [TFV, tenofovir], for which the “genital tract tissue concentrations relative to what has been observed in women” value in data set [1] is given as “approximately 10 fold”.
Take `Cc1ccnc2c1NC(=O)c1cccnc1N2C1CC1` [nevirapine]: the “resistance conferred by Y181C” value in data set [4] was more than 40 fold. Besides, in data set [15], the “resistance conferred by Y181I/V” value is recorded as more than 60 fold.

The values above are taken from article PMC7108851 (Journal of Virology, 2020).
